Results taken from ChEMBL document CHEMBL3864164, “II. Discovery of a novel series of CXCR3 antagonists with a beta amino acid core” (Bioorg Med Chem Lett, 2016).
Values after ≈ are worked out from the molar mass of the structure shown.

What was measured:
[1] = Solubility of the compound at pH 1.1 to 7.4; assay type: physicochemical; details: buffer
[2] = Drug degradation in solid phase after few months; assay type: physicochemical; details: read-out: Drug degradation
[3] = Absolute oral bioavailability in Balb/c mouse at 10 mg/kg; assay type: ADME, organism-based; details: in vivo

CCc1cc(CN(CC2CCCC2)[C@@H](CC(=O)O)c2ccc(Cl)cc2)ccc1OCCN1C(=O)CCC1=O
solubility [1]: 3000 µM (≈ 1620 µg/mL) | degraded [2]: 5 to 7%

COc1cc(CN(CC2CC2)[C@@H](CC(=O)O)c2ccc(Cl)c(F)c2)ccc1OCCN1C(=O)CCC1=O.Cl
bioavailability [3]: 5.4% | solubility [1]: 3000 µM | degraded [2]: 5 to 7%

COc1cc(CN(CC2CCCC2)[C@@H](CC(=O)O)c2ccc(Cl)c(F)c2)ccc1OCCN1C(=O)CCC1=O
solubility [1]: 3000 µM (≈ 1680 µg/mL) | degraded [2]: 5 to 7%

COc1cc(CN(CC(C)C)C(CC(=O)O)c2ccc(Cl)cc2Cl)ccc1OCCN1C(=O)CCC1=O (configuration not stated)
solubility [1]: 3000 µM (≈ 1650 µg/mL) | degraded [2]: 5 to 7%

COc1cc(CN(C2CCC2)C(CC(=O)O)c2ccc(Cl)cc2)ccc1OCCn1c(=O)ccn(C)c1=O (configuration not stated)
solubility [1]: 3000 µM (≈ 1630 µg/mL) | degraded [2]: 5 to 7%

COc1cc(CN(CC2CC2)C(CC(=O)O)c2ccc3c(c2)CCO3)ccc1OCCn1c(=O)ccn(C)c1=O (configuration not stated)
solubility [1]: 3000 µM (≈ 1650 µg/mL) | degraded [2]: 5 to 7%

Cc1cc(CN(CC2CCCC2)C(CC(=O)O)c2ccc(Cl)cc2)ccc1OCCN1C(=O)CCC1=O (configuration not stated)
solubility [1]: 3000 µM (≈ 1580 µg/mL) | degraded [2]: 5 to 7%

CCCN(Cc1ccc(OCCN2C(=O)CCC2=O)c(C)c1)[C@H](CC(=O)O)c1ccc(Cl)cc1
solubility [1]: 3000 µM (≈ 1460 µg/mL) | degraded [2]: 5 to 7%

C[C@@H](c1ccc(Cl)cc1)N(Cc1ccc(OCCN2C(=O)CCC2=O)c(C(=O)O)c1)CC1CCCC1
solubility [1]: 3000 µM (≈ 1540 µg/mL) | degraded [2]: 5 to 7%

Cc1cc(CN(CC(C)C)[C@@H](CC(=O)O)c2ccc(Cl)cc2)ccc1OCCN1C(=O)CCC1=O
solubility [1]: 3000 µM (≈ 1500 µg/mL) | degraded [2]: 5 to 7%

Cc1cc(CN(CC(C)C)[C@@H](CC(=O)O)c2ccc(Cl)c(F)c2)ccc1OCCN1C(=O)CCC1=O.Cl
solubility [1]: 3000 µM | degraded [2]: 5 to 7%

COc1cc(CN(CC(C)C)C(CC(=O)O)c2ccc3c(c2)CCO3)ccc1OCCN1C(=O)CCC1=O (configuration not stated)
solubility [1]: 3000 µM (≈ 1570 µg/mL) | degraded [2]: 5 to 7%

Cc1cc(CN(CC(C)C)C(CC(=O)O)c2ccc(Cl)c(Cl)c2)ccc1OCCN1C(=O)CCC1=O (configuration not stated)
solubility [1]: 3000 µM (≈ 1610 µg/mL) | degraded [2]: 5 to 7%

CCCN(Cc1ccc(OCCN2C(=O)CCC2=O)c(C)c1)[C@@H](CC(=O)O)c1ccc(Cl)cc1
solubility [1]: 3000 µM (≈ 1460 µg/mL) | degraded [2]: 5 to 7%

COc1cc(CN(CC(C)C)C(CC(=O)O)c2ccc(Cl)cc2)ccc1OCCn1c(=O)ccn(C)c1=O (configuration not stated)
solubility [1]: 3000 µM (≈ 1630 µg/mL) | degraded [2]: 5 to 7%

CCCN(Cc1ccc(OCCn2c(=O)ccn(C)c2=O)c(OC)c1)C(CC(=O)O)c1ccc2c(c1)CCO2 (configuration not stated)
solubility [1]: 3000 µM (≈ 1610 µg/mL) | degraded [2]: 5 to 7%

Cc1cc(CN(CC(C)C)C(CC(=O)O)c2ccc(Cl)c(F)c2)ccc1OCCN1C(=O)CCC1=O (configuration not stated)
solubility [1]: 3000 µM (≈ 1560 µg/mL) | degraded [2]: 5 to 7%

Cl.O=C(O)C[C@@H](c1ccc(Cl)c(F)c1)N(Cc1ccc(OCCN2C(=O)CCC2=O)c(Cl)c1)CC1CC1
bioavailability [3]: 35% | solubility [1]: 3000 µM | degraded [2]: 5 to 7%

COc1cc(CN(CC(C)C)[C@H](CC(=O)O)c2ccc(Cl)cc2)ccc1OCCn1c(=O)ccn(C)c1=O
solubility [1]: 3000 µM (≈ 1630 µg/mL) | degraded [2]: 5 to 7%

Cc1cc(CN(CC2CC2)[C@@H](CC(=O)O)c2ccc(Cl)cc2)ccc1OCCN1C(=O)CCC1=O
solubility [1]: 3000 µM (≈ 1500 µg/mL) | degraded [2]: 5 to 7%

Cc1cc(CN(CC(C)C)C(CC(=O)O)c2ccc3c(c2)CCO3)ccc1OCCN1C(=O)CCC1=O (configuration not stated)
solubility [1]: 3000 µM (≈ 1530 µg/mL) | degraded [2]: 5 to 7%

CCCN(Cc1ccc(OCCN2C(=O)CCC2=O)c(C)c1)C(CC(=O)O)c1ccc(Cl)s1.Cl (configuration not stated)
solubility [1]: 3000 µM | degraded [2]: 5 to 7%

CCCN(Cc1ccc(OCCN2C(=O)CCC2=O)c(C)c1)C(CC(=O)O)c1ccc(Cl)cc1 (configuration not stated)
solubility [1]: 3000 µM (≈ 1460 µg/mL) | degraded [2]: 5 to 7%

Cc1cc(CN(CC2CCCCC2)C(CC(=O)O)c2ccc(Cl)cc2)ccc1OCCN1C(=O)CCC1=O (configuration not stated)
solubility [1]: 3000 µM (≈ 1620 µg/mL) | degraded [2]: 5 to 7%

CCCN(Cc1ccc(OCCN2C(=O)CCC2=O)c(C)c1)C(c1ccc(Cl)cc1)C1(C(=O)O)CC1 (configuration not stated)
solubility [1]: 3000 µM (≈ 1540 µg/mL) | degraded [2]: 5 to 7%

Cc1cc(CN(CC2CC2)C(CC(=O)O)c2ccc(Cl)cc2)ccc1OCCN1C(=O)CCC1=O (configuration not stated)
solubility [1]: 3000 µM (≈ 1500 µg/mL) | degraded [2]: 5 to 7%

CCN(Cc1ccc(OCCn2c(=O)ccn(C)c2=O)c(OC)c1)C(CC(=O)O)c1ccc(Cl)cc1 (configuration not stated)
solubility [1]: 3000 µM (≈ 1550 µg/mL) | degraded [2]: 5 to 7%

Cc1cc(CN(CC(C)C)C(CC(=O)O)c2ccc(Cl)cc2)ccc1OCCN1C(=O)CCC1=O (configuration not stated)
solubility [1]: 3000 µM (≈ 1500 µg/mL) | degraded [2]: 5 to 7%

Cl.O=C(O)C[C@@H](c1ccc(Cl)c(F)c1)N(Cc1ccc(OCCN2C(=O)CCC2=O)c(F)c1)CC1CC1
bioavailability [3]: 70% | solubility [1]: 3000 µM | degraded [2]: 5 to 7%

COc1cc(CN(CC(C)C)C(CC(=O)O)c2ccc3c(c2)CCO3)ccc1OCCn1c(=O)ccn(C)c1=O (configuration not stated)
solubility [1]: 3000 µM (≈ 1650 µg/mL) | degraded [2]: 5 to 7%

CCCN(Cc1ccc(OCCn2c(=O)ccn(C)c2=O)c(OC)c1)C(CC(=O)O)c1ccc(Cl)cc1 (configuration not stated)
solubility [1]: 3000 µM (≈ 1590 µg/mL) | degraded [2]: 5 to 7%

COc1cc(CN(CC(C)C)[C@@H](CC(=O)O)c2ccc(Cl)cc2)ccc1OCCn1c(=O)ccn(C)c1=O
solubility [1]: 3000 µM (≈ 1630 µg/mL) | degraded [2]: 5 to 7%

Cc1cc(CN(CCC(F)(F)F)C(CC(=O)O)c2ccc(Cl)cc2)ccc1OCCN1C(=O)CCC1=O (configuration not stated)
solubility [1]: 3000 µM (≈ 1620 µg/mL) | degraded [2]: 5 to 7%

Cc1cc(CN(CC2CCCC2)[C@@H](CC(=O)O)c2ccc(Cl)cc2)ccc1OCCN1C(=O)CCC1=O
bioavailability [3]: 14% | solubility [1]: 3000 µM (≈ 1580 µg/mL) | degraded [2]: 5 to 7%

Cc1cc(CN(CC2CC2)C(CC(=O)O)c2ccc(Cl)cc2)ccc1OCCn1c(=O)ccn(C)c1=O (configuration not stated)
solubility [1]: 3000 µM (≈ 1580 µg/mL) | degraded [2]: 5 to 7%

Cc1cc(CN(C)C(CC(=O)O)c2ccc(Cl)cc2)ccc1OCCn1c(=O)ccn(C)c1=O (configuration not stated)
solubility [1]: 3000 µM (≈ 1460 µg/mL) | degraded [2]: 5 to 7%

Cc1cc(CN(Cc2ccc(F)cc2)C(CC(=O)O)c2ccc(Cl)cc2)ccc1OCCN1C(=O)CCC1=O.Cl (configuration not stated)
solubility [1]: 3000 µM | degraded [2]: 5 to 7%

CCCCN(Cc1ccc(OCCn2c(=O)ccn(C)c2=O)c(OC)c1)C(CC(=O)O)c1ccc2c(c1)CCO2 (configuration not stated)
solubility [1]: 3000 µM (≈ 1650 µg/mL) | degraded [2]: 5 to 7%

CCCCN(Cc1ccc(OCCn2c(=O)ccn(C)c2=O)c(OC)c1)C(CC(=O)O)c1ccc(Cl)cc1 (configuration not stated)
solubility [1]: 3000 µM (≈ 1630 µg/mL) | degraded [2]: 5 to 7%

COc1cc(CN(CC(C)C)C(CC(=O)O)c2ccc(Cl)cc2)ccc1OCCN1C(=O)CCC1=O (configuration not stated)
solubility [1]: 3000 µM (≈ 1550 µg/mL) | degraded [2]: 5 to 7%

COc1cc(CN(CC2CC2)C(CC(=O)O)c2ccc(Cl)cc2)ccc1OCCn1c(=O)ccn(C)c1=O (configuration not stated)
solubility [1]: 3000 µM (≈ 1630 µg/mL) | degraded [2]: 5 to 7%

CCCN(Cc1ccc(OCCN2C(=O)CCC2=O)c(OC)c1)C(CC)c1ccc(Cl)c(C(=O)O)c1 (configuration not stated)
solubility [1]: 3000 µM (≈ 1550 µg/mL) | degraded [2]: 5 to 7%

CCCN(Cc1ccc(OCCN2C(=O)CCC2=O)c(C)c1)C1c2ccc(Cl)cc2CC1C(=O)O (configuration not stated)
solubility [1]: 3000 µM (≈ 1500 µg/mL) | degraded [2]: 5 to 7%

Cc1cc(CN(CC2CCCC2)[C@@H](CC(=O)O)c2ccc(Cl)c(F)c2)ccc1OCCN1C(=O)CCC1=O.Cl
solubility [1]: 3000 µM | degraded [2]: 5 to 7%

CCCN(Cc1ccc(OCCn2c(=O)ccn(C)c2=O)c(C)c1)C(CC(=O)O)c1ccc(Cl)cc1 (configuration not stated)
solubility [1]: 3000 µM (≈ 1540 µg/mL) | degraded [2]: 5 to 7%

Cl.O=C(O)C[C@@H](c1ccc(Cl)c(Cl)c1)N(Cc1ccc(OCCN2C(=O)CCC2=O)c(F)c1)CC1CC1
bioavailability [3]: 64% | solubility [1]: 3000 µM | degraded [2]: 5 to 7%

CCCCN(Cc1ccc(OCCN2C(=O)CCC2=O)c(C)c1)C(CC(=O)O)c1ccc(Cl)cc1 (configuration not stated)
solubility [1]: 3000 µM (≈ 1500 µg/mL) | degraded [2]: 5 to 7%

Cc1cc(CN(CC(C)C)C(CC(=O)O)c2ccc(Cl)cc2Cl)ccc1OCCN1C(=O)CCC1=O (configuration not stated)
solubility [1]: 3000 µM (≈ 1610 µg/mL) | degraded [2]: 5 to 7%

COc1cc(CN(CC(C)C)C(CC(=O)O)c2ccc(Cl)c(F)c2)ccc1OCCN1C(=O)CCC1=O (configuration not stated)
solubility [1]: 3000 µM (≈ 1610 µg/mL) | degraded [2]: 5 to 7%

CCN(Cc1ccc(OCCN2C(=O)CCC2=O)c(C)c1)C(CC(=O)O)c1ccc(Cl)cc1 (configuration not stated)
solubility [1]: 3000 µM (≈ 1420 µg/mL) | degraded [2]: 5 to 7%

COc1cc(CN(CC(C)C)C(CC(=O)O)c2ccc(Cl)c(Cl)c2)ccc1OCCN1C(=O)CCC1=O (configuration not stated)
solubility [1]: 3000 µM (≈ 1650 µg/mL) | degraded [2]: 5 to 7%

Cc1cc(CN(C2CCC2)C(CC(=O)O)c2ccc(Cl)cc2)ccc1OCCn1c(=O)ccn(C)c1=O (configuration not stated)
solubility [1]: 3000 µM (≈ 1580 µg/mL) | degraded [2]: 5 to 7%

CCCN(Cc1ccc(OCCN2C(=O)CCC2=O)c(OC)c1)C(C(=O)O)c1ccc(Cl)cc1 (configuration not stated)
solubility [1]: 3000 µM (≈ 1470 µg/mL) | degraded [2]: 5 to 7%

Cc1cc(CN(C2CCC2)C(CC(=O)O)c2ccc(Cl)cc2)ccc1OCCN1C(=O)CCC1=O (configuration not stated)
solubility [1]: 3000 µM (≈ 1500 µg/mL) | degraded [2]: 5 to 7%

CCCN(Cc1ccc(OCCN2C(=O)CCC2=O)c(OC)c1)C(c1ccc(Cl)cc1)C(C)C(=O)O (configuration not stated)
solubility [1]: 3000 µM (≈ 1550 µg/mL) | degraded [2]: 5 to 7%

CCN(Cc1ccc(OCCn2c(=O)ccn(C)c2=O)c(C)c1)C(CC(=O)O)c1ccc(Cl)cc1 (configuration not stated)
solubility [1]: 3000 µM (≈ 1500 µg/mL) | degraded [2]: 5 to 7%
